Experiments:
[1] = molecular target: T1, Protein cereblon/ALK tyrosine kinase receptor/Nucleophosmin (Homo sapiens, UniProt Q9UM73+P06748+Q96SW2); assay: PROTAC activity at CRBN/NPM/ALK in human KARPAS-299 cells assessed as maximal degradation of protein at 1 uM incubated for 48 hrs by Western blotting analysis relative to control; format: cell-based
[2] = molecular target: T2, Glucose-induced degradation protein 4 homolog/EML4-ALK (Homo sapiens, UniProt Q9UM73+Q9HC35+Q8IVV7); assay: PROTAC activity at GID4/EML4-ALK in human NCI-H3122 cells assessed as maximal protein degradation at 1 uM measured for 48 hrs by immunoblot analysis relative to control; format: cell-based
[3] = molecular target: T2, Glucose-induced degradation protein 4 homolog/EML4-ALK; assay: PROTAC activity at GID4/EML4-ALK in human NCI-H3122 cells assessed as protein degradation at 1 uM measured for 48 hrs by immunoblot analysis; format: cell-based
[4] = molecular target: T1, Protein cereblon/ALK tyrosine kinase receptor/Nucleophosmin; assay: PROTAC activity at CRBN/NPM/ALK in human KARPAS-299 cells incubated for 48 hrs by Western blotting analysis; format: cell-based
Target sequence in this assay (Q9UM73 whole entry): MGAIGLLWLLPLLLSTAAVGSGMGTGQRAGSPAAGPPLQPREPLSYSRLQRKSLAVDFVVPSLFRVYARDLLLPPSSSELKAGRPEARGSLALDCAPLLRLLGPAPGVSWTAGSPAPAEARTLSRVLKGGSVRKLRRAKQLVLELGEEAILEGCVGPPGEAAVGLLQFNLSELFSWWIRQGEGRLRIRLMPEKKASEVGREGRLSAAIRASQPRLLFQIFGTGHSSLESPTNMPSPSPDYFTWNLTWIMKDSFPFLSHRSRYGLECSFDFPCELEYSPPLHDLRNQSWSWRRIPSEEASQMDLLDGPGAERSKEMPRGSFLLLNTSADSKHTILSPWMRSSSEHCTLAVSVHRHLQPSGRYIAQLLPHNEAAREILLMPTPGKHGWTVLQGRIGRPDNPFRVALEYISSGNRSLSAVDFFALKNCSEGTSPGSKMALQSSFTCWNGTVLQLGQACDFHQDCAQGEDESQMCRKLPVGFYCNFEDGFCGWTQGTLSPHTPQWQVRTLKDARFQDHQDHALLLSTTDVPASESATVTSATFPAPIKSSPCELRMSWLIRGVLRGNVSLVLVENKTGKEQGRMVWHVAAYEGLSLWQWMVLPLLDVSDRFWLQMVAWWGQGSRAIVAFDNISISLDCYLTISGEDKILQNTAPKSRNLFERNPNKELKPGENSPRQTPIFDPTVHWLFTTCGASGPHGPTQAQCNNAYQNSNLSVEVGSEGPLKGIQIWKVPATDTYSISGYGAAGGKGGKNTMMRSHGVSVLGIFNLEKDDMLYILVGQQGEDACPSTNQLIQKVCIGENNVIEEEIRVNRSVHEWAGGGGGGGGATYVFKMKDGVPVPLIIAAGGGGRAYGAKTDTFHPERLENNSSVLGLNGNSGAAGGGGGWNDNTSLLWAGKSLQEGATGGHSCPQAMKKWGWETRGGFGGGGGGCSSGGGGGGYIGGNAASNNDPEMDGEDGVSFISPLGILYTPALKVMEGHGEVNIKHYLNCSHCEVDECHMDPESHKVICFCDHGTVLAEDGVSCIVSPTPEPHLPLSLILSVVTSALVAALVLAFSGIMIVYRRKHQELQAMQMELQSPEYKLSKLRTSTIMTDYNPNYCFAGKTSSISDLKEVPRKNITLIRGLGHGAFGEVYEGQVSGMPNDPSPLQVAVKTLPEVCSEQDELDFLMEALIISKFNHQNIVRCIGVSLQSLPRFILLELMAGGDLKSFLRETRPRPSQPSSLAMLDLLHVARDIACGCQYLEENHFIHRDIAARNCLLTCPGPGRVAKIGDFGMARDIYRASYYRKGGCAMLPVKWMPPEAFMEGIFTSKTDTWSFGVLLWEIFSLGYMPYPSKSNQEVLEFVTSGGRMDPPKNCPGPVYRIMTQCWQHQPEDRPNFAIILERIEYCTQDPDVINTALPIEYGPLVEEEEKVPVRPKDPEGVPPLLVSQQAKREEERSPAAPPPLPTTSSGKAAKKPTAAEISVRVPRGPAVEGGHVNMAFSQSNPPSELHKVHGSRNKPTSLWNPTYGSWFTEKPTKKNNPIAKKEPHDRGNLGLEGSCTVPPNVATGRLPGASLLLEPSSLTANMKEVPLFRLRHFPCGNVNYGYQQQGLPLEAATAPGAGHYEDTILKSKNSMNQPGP
Target sequence in this assay (P06748 whole entry): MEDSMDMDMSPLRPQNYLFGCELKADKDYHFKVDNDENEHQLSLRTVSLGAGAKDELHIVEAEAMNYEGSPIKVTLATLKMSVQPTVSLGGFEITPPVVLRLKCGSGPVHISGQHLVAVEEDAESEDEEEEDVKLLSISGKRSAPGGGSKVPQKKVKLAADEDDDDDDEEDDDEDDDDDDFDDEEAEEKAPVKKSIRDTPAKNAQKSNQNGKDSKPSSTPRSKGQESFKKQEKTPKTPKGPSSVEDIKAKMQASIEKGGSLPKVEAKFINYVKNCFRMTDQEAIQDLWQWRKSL
Target sequence in this assay (Q96SW2 whole entry): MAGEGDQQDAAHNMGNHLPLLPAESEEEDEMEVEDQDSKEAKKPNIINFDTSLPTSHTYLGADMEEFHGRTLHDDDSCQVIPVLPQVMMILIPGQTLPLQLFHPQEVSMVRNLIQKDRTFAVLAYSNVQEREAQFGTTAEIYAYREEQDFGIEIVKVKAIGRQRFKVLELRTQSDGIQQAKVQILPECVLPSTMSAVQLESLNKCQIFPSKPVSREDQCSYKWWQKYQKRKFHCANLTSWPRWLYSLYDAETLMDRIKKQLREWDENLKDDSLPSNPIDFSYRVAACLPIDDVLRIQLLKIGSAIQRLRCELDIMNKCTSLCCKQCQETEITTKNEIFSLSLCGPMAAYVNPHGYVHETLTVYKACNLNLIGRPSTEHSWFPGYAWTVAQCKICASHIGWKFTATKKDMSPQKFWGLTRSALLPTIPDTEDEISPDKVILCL

[5] = PROTAC activity at VHL/human p38alpha in MDA-MB-231 cells assessed as p38alpha degradation; format: cell-based
[6] = molecular target: T3, Bromodomain-containing protein 4 (Homo sapiens, UniProt O60885); assay: Inhibition of BRD4 (unknown origin) at 0.01 umol/L relative to control; conditions: dose 0.01 µmol/L
[7] = molecular target: T4, Protein cereblon/Bromodomain-containing protein 4 (Homo sapiens, UniProt O60885+Q96SW2); assay: PROTAC activity at CRBN/BRD4 in human MV4-11 cells assessed as induction of degradation of BRD4 measured after 24 hrs by Western blot analysis; format: cell-based
T4 sequence (Q96SW2 whole entry, looked up, other chains not shown): as the sequence (Q96SW2 whole entry) above

[8] = molecular target: T4, Protein cereblon/Bromodomain-containing protein 4; assay: PROTAC activity at CRBN/BRD4 in human MV4-11 cells assessed as induction of degradation of BRD4 by measuring maximal degradation at 10 uM incubated after 24 hrs by Western blot analysis relative to control; format: cell-based
MV4-11 = assay: Antiproliferative activity against human MV4-11 cells; format: functional, cell-based
THP-1 = assay: Antiproliferative activity against human THP-1 cells; format: functional, cell-based
[9] = molecular target: T3, Bromodomain-containing protein 4; assay: Inhibition of BRD4 (unknown origin) at 1 micromol/L relative to control; conditions: dose 1.0 µmol/L
HL-60 = assay: Antiproliferative activity against human HL-60 cells; format: functional, cell-based
[10] = molecular target: Protein cereblon/Tyrosine-protein kinase BTK (Homo sapiens, UniProt Q06187+Q96SW2); assay: PROTAC activity at BTK/CRBN in human MINO cells assessed as BTK protein degradation at 20 nM measured after 2 hrs by Western blotting analysis; format: cell-based
Chain of Protein cereblon/Tyrosine-protein kinase BTK (Q06187 whole entry): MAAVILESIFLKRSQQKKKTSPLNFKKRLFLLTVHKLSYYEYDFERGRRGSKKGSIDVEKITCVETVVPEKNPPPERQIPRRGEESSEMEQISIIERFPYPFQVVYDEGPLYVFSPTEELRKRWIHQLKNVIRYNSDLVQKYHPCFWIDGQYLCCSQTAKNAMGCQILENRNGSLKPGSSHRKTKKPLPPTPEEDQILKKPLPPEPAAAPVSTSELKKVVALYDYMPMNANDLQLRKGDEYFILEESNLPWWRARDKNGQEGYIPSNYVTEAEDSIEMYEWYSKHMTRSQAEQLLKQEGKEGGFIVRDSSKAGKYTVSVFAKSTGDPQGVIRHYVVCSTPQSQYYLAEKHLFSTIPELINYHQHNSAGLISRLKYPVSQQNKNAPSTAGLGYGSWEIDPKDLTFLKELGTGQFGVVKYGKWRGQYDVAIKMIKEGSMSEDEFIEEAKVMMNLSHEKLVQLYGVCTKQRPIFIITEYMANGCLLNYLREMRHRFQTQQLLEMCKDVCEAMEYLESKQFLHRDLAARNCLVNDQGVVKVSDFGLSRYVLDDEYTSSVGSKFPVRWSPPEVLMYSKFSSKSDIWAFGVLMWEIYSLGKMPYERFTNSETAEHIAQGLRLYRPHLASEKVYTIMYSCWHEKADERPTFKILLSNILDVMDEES
Chain of Protein cereblon/Tyrosine-protein kinase BTK (Q96SW2 whole entry): as the sequence (Q96SW2 whole entry) above

MCF7 = assay: Antiproliferative activity against human MCF7 cells
T47D = assay: Antiproliferative activity against human T47D cells
[11] = molecular target: Protein cereblon/Mitogen-activated protein kinase kinase kinase kinase 1 (Homo sapiens, UniProt Q92918+Q96SW2); assay: PROTAC activity at CRBN/HPK1 in human Jurkat cells assessed as degradation of HPK1 protein by Western blotting analysis; format: cell-based
Chain of Protein cereblon/Mitogen-activated protein kinase kinase kinase kinase 1 (Q92918 whole entry): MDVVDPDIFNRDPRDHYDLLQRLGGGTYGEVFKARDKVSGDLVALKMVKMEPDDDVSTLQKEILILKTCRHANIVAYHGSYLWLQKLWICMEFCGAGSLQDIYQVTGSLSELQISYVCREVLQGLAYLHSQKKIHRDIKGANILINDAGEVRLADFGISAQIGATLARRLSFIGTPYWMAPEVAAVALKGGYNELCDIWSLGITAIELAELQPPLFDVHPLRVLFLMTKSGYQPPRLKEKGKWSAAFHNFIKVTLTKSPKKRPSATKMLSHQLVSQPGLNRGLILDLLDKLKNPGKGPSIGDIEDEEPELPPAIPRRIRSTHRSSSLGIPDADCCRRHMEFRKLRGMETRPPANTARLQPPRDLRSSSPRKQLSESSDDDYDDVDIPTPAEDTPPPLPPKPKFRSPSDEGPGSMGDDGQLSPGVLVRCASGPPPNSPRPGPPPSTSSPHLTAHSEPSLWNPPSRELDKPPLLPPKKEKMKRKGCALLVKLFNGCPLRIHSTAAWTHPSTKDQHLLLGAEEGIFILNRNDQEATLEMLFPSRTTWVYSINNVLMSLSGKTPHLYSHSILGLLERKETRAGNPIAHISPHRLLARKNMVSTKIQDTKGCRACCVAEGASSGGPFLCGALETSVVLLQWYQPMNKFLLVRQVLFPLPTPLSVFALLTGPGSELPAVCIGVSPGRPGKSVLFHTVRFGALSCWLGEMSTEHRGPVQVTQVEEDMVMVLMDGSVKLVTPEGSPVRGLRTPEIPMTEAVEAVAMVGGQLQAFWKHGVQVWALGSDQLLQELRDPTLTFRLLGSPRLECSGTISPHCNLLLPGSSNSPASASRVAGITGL
Chain of Protein cereblon/Mitogen-activated protein kinase kinase kinase kinase 1 (Q96SW2 whole entry): as the sequence (Q96SW2 whole entry) above

[12] = molecular target: Mitogen-activated protein kinase kinase kinase kinase 1 (Homo sapiens, UniProt Q92918); assay: Inhibition of HPK1 (unknown origin)
Chain of Mitogen-activated protein kinase kinase kinase kinase 1 (Q92918 whole entry): as the sequence (Q92918 whole entry) above

U-87 MG = assay: Antiproliferative activity against human U87 cells; format: functional, cell-based, U-87MG ATCC
[13] = molecular target: von Hippel-Lindau disease tumor suppressor/Platelet-derived growth factor receptor beta (Homo sapiens, UniProt P09619+P40337); assay: PROTAC activity at VHL/PDGFRbeta in human U87 cells assessed as induction of protein degradation by Western blot analysis; format: cell-based
LNCaP = assay: Antiproliferative activity against human LNCAP cells assessed as reduction in cell viability incubated for 24 hrs by MTT assay; format: functional, cell-based
[14] = molecular target: Protein cereblon/Androgen receptor (Homo sapiens) (UniProt P10275+Q96SW2); assay: PROTAC activity at AR/CRBN in human LNCaP cells assessed as protein degradation measured by measuring maximal degradation at 5 uM incubated for 24 hrs by Western blot analysis relative to control; format: cell-based
Chain of Protein cereblon/Androgen receptor (Homo sapiens) (P10275 whole entry, looked up): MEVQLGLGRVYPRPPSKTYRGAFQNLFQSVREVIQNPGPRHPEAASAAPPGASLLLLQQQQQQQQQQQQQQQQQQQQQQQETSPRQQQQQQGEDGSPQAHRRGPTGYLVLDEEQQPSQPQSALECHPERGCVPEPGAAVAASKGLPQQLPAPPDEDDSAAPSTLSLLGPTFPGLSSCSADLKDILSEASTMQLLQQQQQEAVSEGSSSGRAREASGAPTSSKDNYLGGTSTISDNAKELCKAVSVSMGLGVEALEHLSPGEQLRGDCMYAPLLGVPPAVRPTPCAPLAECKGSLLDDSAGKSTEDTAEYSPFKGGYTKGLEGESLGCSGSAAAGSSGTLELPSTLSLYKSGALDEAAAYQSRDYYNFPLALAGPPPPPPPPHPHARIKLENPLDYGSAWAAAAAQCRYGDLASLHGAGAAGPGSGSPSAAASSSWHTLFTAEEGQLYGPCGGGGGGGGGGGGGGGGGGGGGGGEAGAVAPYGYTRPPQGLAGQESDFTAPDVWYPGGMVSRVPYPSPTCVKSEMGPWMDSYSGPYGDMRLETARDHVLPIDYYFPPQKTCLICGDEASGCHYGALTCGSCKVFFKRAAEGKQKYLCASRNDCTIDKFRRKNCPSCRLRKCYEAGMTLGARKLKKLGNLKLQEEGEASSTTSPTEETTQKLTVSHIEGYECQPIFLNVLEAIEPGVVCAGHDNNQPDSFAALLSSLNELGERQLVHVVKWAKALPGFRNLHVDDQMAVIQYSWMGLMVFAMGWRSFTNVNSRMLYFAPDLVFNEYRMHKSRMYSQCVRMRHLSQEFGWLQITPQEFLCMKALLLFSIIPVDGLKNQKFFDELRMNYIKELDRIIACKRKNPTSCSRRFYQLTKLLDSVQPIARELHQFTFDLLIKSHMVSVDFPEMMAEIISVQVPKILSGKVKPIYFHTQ
Chain of Protein cereblon/Androgen receptor (Homo sapiens) (Q96SW2 whole entry, looked up): as the sequence (Q96SW2 whole entry) above

[15] = molecular target: Platelet-derived growth factor receptor beta (Homo sapiens) (UniProt P09619); assay: Inhibition of PDGFRbeta (unknown origin) measured for 48 hrs at 10 uM relative to control
[16] = Downregulation of MDM2 protein expression in human A549 cells at 1.11 uM relative to control; format: functional
[17] = Upregulation of p53 protein expression in human A549 cells at 3.33 uM relative to control; format: functional
[18] = Downregulation of MDM2 protein expression in human A549 cells at 3.33 uM relative to control; format: functional
[19] = Upregulation of p53 protein expression in human A549 cells at 10 uM relative to control; format: functional
[20] = Upregulation of p53 protein expression in human A549 cells at 1.11 uM relative to control; format: functional
A549 = assay: Antiproliferative activity against human A549 cells; format: functional, cell-based
[21] = Downregulation of MDM2 protein expression in human A549 cells at 10 uM relative to control; format: functional

COc1cc(N2CCN(C(=O)CNc3cccc4c3C(=O)N(C3CCC(=O)NC3=O)C4=O)CC2)ccc1Nc1ncc(Cl)c(Nc2ccccc2S(=O)(=O)C(C)C)n1 (centres undefined)
Emax [1]: 92.3% | Emax [2]: 81.3% | DC50 [3]: 358 nM | DC50 [4]: 4.6 nM

Cc1ccc(C(=O)NCCCc2cn(CCCC(=O)NCCCCCC(=O)N[C@H](C(=O)N3C[C@H](O)C[C@H]3C(=O)N[C@@H](C)c3ccc(-c4scnc4C)cc3)C(C)(C)C)nn2)cc1-n1c(C)cc(OCc2ccc(F)cc2F)c(Br)c1=O
DC50 [5]: 11.6 nM

Cc1cc(-c2cc(NC(=O)CCC(=O)NCCOCCOCCc3ccc4c(c3)C(=O)N(C3CCC(=O)NC3=O)C4=O)ccc2Oc2ccccc2)n2cc[nH]c(=O)c12 (centres undefined)
inhibition [6]: 61.1% | DC50 [7]: 0.75 nM | Emax [8]: 95% | IC50 (MV4-11): 0.4 nM | IC50 (THP-1): 22.9 nM | inhibition [9]: 92.3% | IC50 (HL-60): 45.6 nM

Nc1ncnc2c1c(-c1ccc(Oc3ccccc3)cc1)nn2[C@@H]1CCCN(C(=O)CCCCCNc2ccc3c(c2)C(=O)N(C2CCC(=O)NC2=O)C3)C1 (some centres undefined)
DC50 [10]: 3.8 nM

Nc1nc(NC2CCC(C#Cc3ccc(C(=O)Nc4ccc5c(c4)CN(C4CCC(=O)NC4=O)C5=O)cc3)CC2)sc1C(=O)c1ccccc1[N+](=O)[O-] (centres undefined)
IC50 (MCF7): 28.9 nM | IC50 (T47D): 41.7 nM

COc1ccc(-c2c[nH]c3ccc(-c4ccc(N5CCN(C(=O)CCOCCNc6cccc7c6C(=O)N(C6CCC(=O)NC6=O)C7=O)CC5)cc4)cc23)cc1OC (centres undefined)
DC50 [11]: 1.8 nM | IC50 [12]: 140 nM

Cc1cccc(NC(=O)Nc2ccc(-c3cccc4c3c(N)nn4C(=O)CCCNC(=O)C3CC4CC3c3c4cnnc3-c3ccc(NC(=O)CCC(=O)N[C@H](C(=O)N4C[C@H](O)C[C@H]4C(=O)NCc4ccc(-c5scnc5C)cc4)C(C)(C)C)cc3)cc2)c1F (some centres undefined)
IC50 (U-87 MG): > 100 µM | DC50 [13]: 257 nM

CC1(C)C(=O)N(c2ccc(C#N)c(C(F)(F)F)c2)C(=S)N1CCCCCCCCC(=O)N1CCN(CCCCCCCCCCCCC(=O)NC23CC4CC(CC(C4)C2)C3)CC1
IC50 (LNCaP): 4.77 µM | Emax [14]: 57%

O=C1CCC(N2Cc3c(NC(=O)CCCNC(=O)c4cc(Oc5ccc(NC(=O)Nc6ccc(Cl)c(C(F)(F)F)c6)cc5)ccn4)cccc3C2=O)C(=O)N1 (centres undefined)
inhibition [15]: > 70%

COC(C)(C)CCC[C@@](C)(O)[C@H]1CC[C@]2(C)[C@@H]1[C@H](O)C[C@@H]1[C@@]3(C)CC[C@H](OCC(=O)N4CCN(CC5CCN(c6ccc7c(c6)CN(C6CCC(=O)NC6=O)C7=O)CC5)CC4)C(C)(C)[C@@H]3CC[C@]12C (some centres undefined)
Activity [16]: 33.78% | Activity [17]: 138.01% | Activity [18]: 49.53% | Activity [19]: 147.15% | Activity [20]: 133.45% | IC50 (A549): 2160 nM | Activity [21]: 65.39%
